Columns and labels:
[1] = tested on: oral mucosal epithelial cells; assay: Cell culture of oral mucosal epithelial cells using a Rho kinase inhibitor (cell morphology); type: cell-based, human; settings: inhibitor-containing medium (10 μM); passage 5 with inhibitor vs passage 0 without; FIG. 12
Experimental: Odontoma cells, oral mucosal epithelial cells, fibroblasts, and cancer-associated fibroblasts (CAFs) (i) Patient-derived cells for use as a source material were taken in a required amount as described above. (ii) The cells were washed three times with phosphate-buffered physiological saline (PBS) (supplemented with 10 units/ml of penicillin and 100 μg/ml of streptomycin: Sigma-Aldrich). (iii) The cells were cut into small pieces with sterilized iris scissors and a surgical knife (No. 11). (iv) After addition of trypsin (TrypLE Select Enzyme, Gibco, Code No. A12177-01), the cells were shaken at 37° C. for 30 minutes. (v) The cells were mixed with Dulbecco's modified Eagle medium (DMEM: Sigma-Aldrich) (supplemented with 10% fetal bovine serum: Nichirei Bioscience Inc., Japan, 10 units/ml of penicillin and 100 μg/ml of streptomycin), and centrifugation (at 1000 rpm for 5 minutes) was repeated three times. (vi) The cells were mixed with DMEM (supplemented with 10% fetal bovine serum, 10 units/ml of penicillin, 100 μg/ml of streptomycin, 10 μM of the Rock kinase inhibitor and 0.3 μM of L-ascorbic acid 2-phosphate: Sigma-Aldrich) (DMEM+) and then seeded into collagen type I-coated cell culture dishes (IWAKI). (vii) The cells were washed with PBS once every three days to replace the above medium. (viii) The cultured cells were subcultured at 80% confluency. […]

amylase = assay: Expression analysis of amylase by quantitative RT-PCR in salivary gland cells; type: cell-based, human; settings: salivary gland cells repeatedly subcultured in Rock inhibitor-containing medium; relative to GAPDH; FIG. 2
Experimental: Salivary gland cells were cultured in the presence or absence of a Rock inhibitor and provided for quantitative RT-PCR assay with a LightCycler 480 (Roche) to analyze amylase expression in these salivary gland cells. The primers used for amylase are as shown below, and the universal probe used was #18. The primers used for glyceraldehyde-3-phosphate dehydrogenase (GAPDH) serving as an endogenous control are as shown below, and the universal probe used was #60. The PCR reaction was conducted in accordance with standard protocols by using a mixture (final reaction volume: 20 μl) containing 10 μl of Probe master (Roche), 0.2 μl of each probe master and the primers. The reaction conditions were set to initial denaturation at 95° C. for 5 minutes and 50 amplification cycles of denaturation at 95° C. for 10 seconds, annealing at 60° C. for 30 seconds and elongation reaction at 60° C. for 60 seconds. The mRNA level of the desired gene was expressed as a relative value to the expression level of GAPDH used as a control.

salivary gland cells [2] = assay: Karyotype analysis (Q band technique) of primary cultured salivary gland cells; type: cell-based, human; settings: primary cultured labial gland cells cultured in inhibitor-containing medium; FIG. 5
Experimental: Primary cultured salivary gland cells were cultured in a medium containing a Rock inhibitor and analyzed for the presence or absence of their genetic defect(s) by karyotype analysis. The karyotype analysis test was conducted by Q band technique.

B6C3F1/Crlj mice = assay: Toxicity in mice administered intraperitoneally with a Rock inhibitor; type: in vivo; settings: 10 mg/kg/day intraperitoneal, once a day for 14 days
Experimental: 4.3 Histopathological Analysis of Organ Toxicity in Mice Administered Intraperitoneally with a Rock Inhibitor Animal used: B6C3F1/Crlj mice (CLEA Japan, Inc., Japan) n=12 for each group (male: 6, female: 6), n=4 for the control group (male: 2, female: 2) Drug: Y-27632 Dose: 10 mg/kg/day (0.25 mg/day for 25 g body weight) Y-27632 was dissolved in PBS and intraperitoneally administered. The control group was administered with an equal volume of PBS. Administration period: administered once a day for successive 14 days. Half of the mice in each group were monitored for follow-up purposes for 14 days after administration. (i) Groups receiving a Rock inhibitor (RI+): n=12 (male: 6, female: 6) A. Group subjected to blood collection and autopsy at the time of the completion of administration (at 14 days after the initiation of administration). n=6 (male: 3, female: 3) B. Group subjected to blood collection and autopsy at the time of the completion of administration (at 28 days after the initiation of administration). n=6 (male: 3, female: 3) The mice were visually observed for their general condition once a day. The mice were measured daily for their body weight and feed/water intake. Hematological tests were performed on each mouse before administration and after administration (on the 14th day). * In each group, 3 male and 3 female mice were subjected to blood collection and autopsy on the 14th day of administration. […] These mice were subjected to blood examination and autopsy on the 28th day after the initiation of administration. Blood counting: red blood cell count, white blood cell count, platelet count, hematocrit value, red blood cell fraction. Biochemical parameters: TP, ALB, CRE, Na, K, GOT, GPT, T-CHO, Glu On the […], 3 male and 3 female mice from each group were subjected to autopsy. The remaining 3 male and 3 female mice were subjected to autopsy on the 28th day after being monitored for follow-up purposes. […]

salivary gland cells [3] = assay: Analysis of cytomorphological changes by immunocytological fluorescent staining of the cytoskeleton (F-actin); type: cell-based, human; settings: salivary gland cells in Rock inhibitor-containing medium vs inhibitor-free medium; FIG. 4
Experimental: In this section, cytomorphological changes caused by the presence or absence of a Rock inhibitor were analyzed by immunocytological fluorescent staining of the cytoskeleton. Analytes were treated by the same experimental procedures as shown in (2.2) above. As an antibody, Acti-stain 670 fluorescent Phallodin (F-actin) (Cytoskeleton) was reacted at room temperature for 1 hour.

Which “cell morphology of oral mucosal epithelial cells on repeated subculture” value [1] does the source give for `CC(N)[C@H]1CC[C@H](C(=O)Nc2ccncc2)CC1` (stereo partly drawn) [Rock inhibitor, (R)-(+)-trans-N-(4-pyridyl)-4-(1-aminoethyl)-cyclohexanecarboxamide] here?
Its value is “maintain their cell morphology even when repeatedly subcultured”.

And the “mRNA expression of amylase” value (amylase)?
The value was “significantly high”.

What about the “chromosomal/genetic defect(s) in karyotype analysis” value (salivary gland cells [2]) of the same molecule?
Its value is “No genetic defect was observed”.

What about the hematological tests (B6C3F1/Crlj mice; FIG. 7) of the same molecule?
Its hematological tests is “No abnormal findings were observed”.

What about the “time course of body weight changes” value (B6C3F1/Crlj mice; FIG. 8) of the same molecule?
The value was “No abnormal findings were observed”.

What about the “histopathological examination of organs” value (B6C3F1/Crlj mice; HE staining, FIG. 9) of the same molecule?
Its value is “No abnormal findings were observed”.

And the “cytoskeleton (F-actin) morphology” value (salivary gland cells [3])?
The value was “honeycomb-like skeleton”.

Reference: US20170349879A1, “METHOD FOR CULTURING NORMAL CELLS AND ODONTOMA CELLS CONTAINED IN ORAL TISSUE” (CHIBA UNIVERSITY, priority 2014, published 2017)
